Experimental data reported in patent US20220281848A1, “PYRAZOLE-SUBSTITUTED PYRROLIDINONES AS HERBICIDES” (FMC Corporation, priority 2019, published 2022).

System: plants
Test: Test D pre-emergence, other plants of Tables D1 and D3
Assay type: in vivo
Settings: pre-emergence, 100=total damage, 0=no damage
Summary of the method: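 Seeds treated with herbicide safener; sown in soil; glasshouse, 16 h light, 65% humidity. Sprayed day 1 (pre) or ~day 12 (post). Spray in 0.2% v/v adjuvant. Scored 0–100 damage: 20 DAA pre, 15 d post.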

Structure (SMILES): CN1CC(c2cc(C(F)(F)F)n(C)n2)C(C(=O)Nc2ccc(F)nc2F)C1=O (racemic) [Compound 22]
- damage to plant, ALOMY (rate 15, 20 DAA): 0
- damage to plant, AVEFA (rate 15, 20 DAA): 0
- damage to plant, BEAVA (rate 15, 20 DAA): 0
- damage to plant, BROTE (rate 15, 20 DAA): 0
- damage to plant, BRSNN (rate 15, 20 DAA): 0
- damage to plant, CHEAL (rate 15, 20 DAA): 0
- damage to plant, GALAP (rate 15, 20 DAA): 0
- damage to plant, HORVW (rate 15, 20 DAA): 0
- damage to plant, KCHSC (rate 15, 20 DAA): 0
- damage to plant, LOLPE (rate 15, 20 DAA): 0
- damage to plant, POAAN (rate 15, 20 DAA): 0
- damage to plant, POLCO (rate 15, 20 DAA): 0
- damage to plant, SINAR (rate 15, 20 DAA): 0
- damage to plant, STEME (rate 15, 20 DAA): 0
- damage to plant, VERPE (rate 15, 20 DAA): 0
- damage to plant, ALOMY (rate 30, 20 DAA): 0
- damage to plant, AVEFA (rate 30, 20 DAA): 0
- damage to plant, BEAVA (rate 30, 20 DAA): 0
- damage to plant, BROTE (rate 30, 20 DAA): 0
- damage to plant, BRSNN (rate 30, 20 DAA): 0
- damage to plant, CHEAL (rate 30, 20 DAA): 0
- damage to plant, GALAP (rate 30, 20 DAA): 0
- damage to plant, HORVW (rate 30, 20 DAA): 0
- damage to plant, KCHSC (rate 30, 20 DAA): 0
- damage to plant, LOLPE (rate 30, 20 DAA): 0
- damage to plant, POAAN (rate 30, 20 DAA): 0
- damage to plant, POLCO (rate 30, 20 DAA): 0
- damage to plant, SINAR (rate 30, 20 DAA): 0
- damage to plant, STEME (rate 30, 20 DAA): 0
- damage to plant, VERPE (rate 30, 20 DAA): 0
- damage to plant, ALOMY (rate 60, 20 DAA): 0
- damage to plant, AVEFA (rate 60, 20 DAA): 0
- damage to plant, BEAVA (rate 60, 20 DAA): 0
- damage to plant, BROTE (rate 60, 20 DAA): 0
- damage to plant, BRSNN (rate 60, 20 DAA): 0
- damage to plant, CHEAL (rate 60, 20 DAA): 20
- damage to plant, GALAP (rate 60, 20 DAA): 0
- damage to plant, HORVW (rate 60, 20 DAA): 0
- damage to plant, KCHSC (rate 60, 20 DAA): 0
- damage to plant, LOLPE (rate 60, 20 DAA): 0
- damage to plant, POAAN (rate 60, 20 DAA): 0
- damage to plant, POLCO (rate 60, 20 DAA): 0
- damage to plant, SINAR (rate 60, 20 DAA): 0
- damage to plant, STEME (rate 60, 20 DAA): 10
- damage to plant, VERPE (rate 60, 20 DAA): 0
- damage to plant, ALOMY (rate 130, 20 DAA): 0
- damage to plant, AVEFA (rate 130, 20 DAA): 0
- damage to plant, BEAVA (rate 130, 20 DAA): 0
- damage to plant, BROTE (rate 130, 20 DAA): 0
- damage to plant, BRSNN (rate 130, 20 DAA): 0
- damage to plant, CHEAL (rate 130, 20 DAA): 10
- damage to plant, GALAP (rate 130, 20 DAA): 0
- damage to plant, HORVW (rate 130, 20 DAA): 0
- damage to plant, KCHSC (rate 130, 20 DAA): 0
- damage to plant, LOLPE (rate 130, 20 DAA): 10
- damage to plant, POAAN (rate 130, 20 DAA): 20
- damage to plant, POLCO (rate 130, 20 DAA): 0
- damage to plant, SINAR (rate 130, 20 DAA): 0
- damage to plant, STEME (rate 130, 20 DAA): 10
- damage to plant, VERPE (rate 130, 20 DAA): 20
- damage to plant, ALOMY (rate 250, 20 DAA): 0
- damage to plant, AVEFA (rate 250, 20 DAA): 0
- damage to plant, BEAVA (rate 250, 20 DAA): 0
- damage to plant, BROTE (rate 250, 20 DAA): 0
- damage to plant, BRSNN (rate 250, 20 DAA): 0
- damage to plant, CHEAL (rate 250, 20 DAA): 80
- damage to plant, GALAP (rate 250, 20 DAA): 0
- damage to plant, HORVW (rate 250, 20 DAA): 0
- damage to plant, KCHSC (rate 250, 20 DAA): 0
- damage to plant, LOLPE (rate 250, 20 DAA): 20
- damage to plant, POAAN (rate 250, 20 DAA): 40
- damage to plant, POLCO (rate 250, 20 DAA): 10
- damage to plant, SINAR (rate 250, 20 DAA): 0
- damage to plant, STEME (rate 250, 20 DAA): 30
- damage to plant, VERPE (rate 250, 20 DAA): 30
- damage to plant, ALOMY (rate 500, 20 DAA): 20
- damage to plant, AVEFA (rate 500, 20 DAA): 0
- damage to plant, BEAVA (rate 500, 20 DAA): 0
- damage to plant, BROTE (rate 500, 20 DAA): 0
- damage to plant, BRSNN (rate 500, 20 DAA): 0
- damage to plant, CHEAL (rate 500, 20 DAA): 40
- damage to plant, GALAP (rate 500, 20 DAA): 0
- damage to plant, HORVW (rate 500, 20 DAA): 0
- damage to plant, KCHSC (rate 500, 20 DAA): 0
- damage to plant, LOLPE (rate 500, 20 DAA): 30
- damage to plant, POAAN (rate 500, 20 DAA): 60
- damage to plant, POLCO (rate 500, 20 DAA): 20
- damage to plant, SINAR (rate 500, 20 DAA): 0
- damage to plant, STEME (rate 500, 20 DAA): 40
- damage to plant, VERPE (rate 500, 20 DAA): 100
